Experimental findings from patent US10485815B2, “Substituted nucleosides, nucleotides and analogs thereof” (Alios BioPharma, Inc., priority 2012, dated 2019) are described below.

One test relates to RSV A2 (ATCC: VR-1540). As to the kind of experiment: RSV RT-PCR based assay in HEp-2 cells. It is filed as cell-based. The following applies: human respiratory syncytial virus, 96 h; RT-PCR assay, HEp-2 cells, RSV A2 MOI 0.1, 4 days after infection; read-out: EC50.
The subject of test [1] is Influenza strain A/WSN/33 (H1N1). As to the kind of experiment: microbe, parasite or virus in culture. It is filed as cell-based. The following applies: A549, 20 h, read-out: % Inhibition.
The subject of test [2] is human parainfluenza virus 3 (hPIV3, ATCC: VR-93). As to the kind of experiment: Parainfluenza virus-3 (PIV-3) RT-PCR assay in A549 cells. The test is classed as cell-based. The following applies: Human respirovirus 3, 168 h, hPIV3 MOI 0.1, 7 days after infection.
Another test relates to hPIV3-eGFP. As to the kind of experiment: microbe, parasite or virus in culture. The test is classed as cell-based, human parainfluenza virus 3. The following applies: Human respirovirus 3, A549, 72 h.
In a further test the test system is human PIV type 3. As to the kind of experiment: Parainfluenza virus-3 (PIV-3) plaque assay in MA-104 cells. It is filed as cell-based. The following applies: MA104, 72 hours infection. The procedure: MA-104 cells were grown in 24-well plates to a confluency of 90% in the presence of minimal essential medium (MEM) supplemented with 10% fetal bovine serum and antibiotics (C-EMEM). The cells were then washed twice with non-complete minimal essential medium (NC-EMEM). Test articles were dissolved in DMSO to a stock concentration of 10 mM. An aliquot of 0.5 mL of the test article at various concentrations was then inoculated in triplicate wells and incubated for 60 minutes at 37° C. with 5% CO2 for the diffusion of test article into MA-104 cells. […] An aliquot of 0.1 mL was then inoculated into all the wells except for the negative and test article toxicity control wells. Upon infection, the plates were incubated for 72 hours at 37° C. at 5% CO2. After incubation, the plates were examined under microscopy to record cytotoxicity. The supernatants collected for viral quantification using a standard plaque assay using MA-104 cells as the indicator cells. To perform the plaques assay, MA-104 cells were grown to confluence in 24-well plates. The cells were washed with serum-free medium prior to inoculation of duplicate wells with serial 10-fold dilutions of supernatant sample. After 1 hour incubation at 37° C., the samples were aspirated and 1.0 mL of methyl cellulose overlay media was added to each well. […]

Another test concerns human metapneumovirus. As to the kind of experiment: Human metapneumovirus (hMPV) TCID50 assay in LLC-MK2 cells. The test is classed as cell-based. The following applies: 168 h, 7 days infection. The procedure:
LLC-MK2 cells were grown in 24-well plates to a confluency of 90% in the presence of minimal essential medium (MEM) supplemented with 10% fetal bovine serum and antibiotics (C-EMEM). The cells were then washed twice with non-complete minimal essential medium (NC-EMEM). Test articles were dissolved in DMSO to a stock concentration of 10 mM. An aliquot of 0.5 mL of the test article at various concentrations was then inoculated in triplicate wells and incubated for 60 minutes at 37° C. with 5% CO2 for the diffusion of test article into LLC-MK2 cells. […] An aliquot of 0.1 mL was then inoculated into all the wells except for the negative and test article toxicity control wells. Upon infection, the plates were incubated for 7 days at 37° C. at 5% CO2. After incubation, the plates were examined under microscopy to record cytotoxicity. The supernatants collected for viral quantification using a standard TCID50 assay using LLC-MK2 cells as the indicator cells. The data was analyzed with Prism software with EC50 defined as drug concentration that reduced the viral load 50% from the viral control (VC).

Molecules are shown by their SMILES.

Turning to `CC[C@]1(CO)O[C@@H](n2ccc(N)nc2=O)[C@H](F)[C@@H]1O` [Compound 3a], the EC50 in the test on RSV A2 (ATCC: VR-1540) is less than 1 µM; in test [1] it was 100 to 250 µM; in test [2] it was less than 20 µM; in the test on hPIV3-eGFP it was less than 20 µM; in the test with human PIV type 3 it was less than 20 µM; in the test with human metapneumovirus, less than 20 µM.
For `Nc1ccn([C@@H]2O[C@@](CO)(CCl)[C@@H](O)[C@H]2F)c(=O)n1` [Compound 7a], the EC50 in the test on RSV A2 (ATCC: VR-1540) is less than 1 µM; in test [1], 100 to 250 µM; in test [2], less than 20 µM; in the test on hPIV3-eGFP it was less than 20 µM; in the test on human PIV type 3 it was less than 20 µM; in the test on human metapneumovirus, less than 20 µM.
